Substitutions are numbered along the chain they refer to.
Columns and labels:
Format in all cases: cell-based
[1] = target: T1, MAS (Homo sapiens, UniProt P04201); assay: Intracellular cAMP assay, induced MAS cells; conditions: data not shown
T1 construct: expressed in transfected cells
T1 sequence (P04201 1-325): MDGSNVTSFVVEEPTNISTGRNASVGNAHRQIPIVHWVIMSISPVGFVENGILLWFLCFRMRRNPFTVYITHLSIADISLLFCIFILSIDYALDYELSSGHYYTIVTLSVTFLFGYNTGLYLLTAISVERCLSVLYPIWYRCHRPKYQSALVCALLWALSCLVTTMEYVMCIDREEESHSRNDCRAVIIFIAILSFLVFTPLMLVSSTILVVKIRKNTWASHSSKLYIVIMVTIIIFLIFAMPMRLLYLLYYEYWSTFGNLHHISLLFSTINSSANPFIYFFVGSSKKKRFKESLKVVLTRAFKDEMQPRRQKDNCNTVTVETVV
Procedure: Measurement of intracellular cAMP. The intracellular cAMP levels were measured using CatchPoint™ cAMP Fluorescent assay kit from Molecular devices (Molecular Devices, Sunnyvale, CA). For the cAMP assay, the cells were plated at a density of 1.25 million cells/well in a six-well plate. The cells were maintained in a cell culture incubator and induced the following day with doxycycline. The cells were serum starved for 2h following the induction for 26-28h. At this point the serum free media was replaced with 1ml of 3-Isobutyl-1-methylxanthine (Sigma-Aldrich, St. Louis, MO) at 1mM concentration for 15min at 37°C. Following this, 250µl of ligands were added at 5x concentration to the wells and incubated for another 15min at 37°C. The plates were then immediately transferred to ice and the cells were lysed with 150µl of lysis buffer provided with kit. The cAMP levels in the lysed samples were measured according to the protocol provided by the supplier.

[2] = target: T2, MAS F112A mutant (Homo sapiens, UniProt P04201, F112A); assay: Calcium assay, F112A MAS mutant stable cell line
T2 construct: expressed in transfected cells
T2 sequence (P04201 1-325 F112A): T1 sequence (P04201 1-325) with F112A
Procedure: (§1) The kinetic parameter t1/2 (time taken to reach half of the maximum response) was determined using SoftMax Pro software supplied with the FlexStation 3 instrument (Molecular Devices, Sunnyvale, CA).
(§2) For re-stimulation assays, the data is expressed as the percentage of maximum agonist stimulation to allow for ready comparison between individual experiments. […]

[3] = target: T1, MAS; assay: Calcium re-stimulation and antagonism assays, MAS expressing stable cells
Procedure: The assay was performed using FLIPR Calcium 5 assay kit (Molecular Devices, Sunnyvale, CA). For calcium measurements, cells at a density of 125,000 cells/well in 100 µl medium were seeded onto a 96-well clear bottom black cell culture plate that was pre-coated with poly-L-lysine. In the calcium assays the cell density of 125,000 cells/well was consistently maintained to minimize variability between independent experiments. The cells were seeded in induction media to induce MAS expression or in complete media for negative controls. The plate was maintained in a cell culture incubator for 26–28 h. The cells were then serum starved for 2 h by replacing the medium with 100 µl of serum free DMEM. In the case of pre-treatment with pan-inhibitor of G protein signaling, BIM-46187, the cells were initially serum starved for 1 h by replacing the medium with 50 µl of serum free DMEM. After 1 h, 50 µl of BIM-46187 was added to the cells to a final concentration of 25 µM and treated for another 1 h. Following serum starvation, 100 µl of calcium sensitive dye along with 2x (2.5 mM final concentration) probenecid (Life Technologies, Grand Island, NY) was added to the cells. During this step, AR-inverse agonist or BIM-46187 was also added at desired concentrations to the calcium dye preparation in case of experiments where cells were pre-treated with these inhibitors. The cells were maintained for one hour in the cell culture incubator. […] The instrument was programmed in FLEX mode to add ligands (50 µl at 5x concentration) to the cells and to monitor the fluorescence before and after adding the ligands. […]
For re-stimulation assays, the data is expressed as the percentage of maximum agonist stimulation to allow for ready comparison between individual experiments. For the IP1 assay, a standard curve was generated using the 4-Parameter logistic equation fit of the HTRF readings of IP1 standards using the SoftMax Pro software. […] In the luciferase assay, the luminescence measurements (RLU) are presented as a ratio of firefly to renilla luciferase activity. […]

[4] = target: T1, MAS; assay: SRF-RE luciferase reporter assay (Gα12-dependent), induced WT MAS stable cell line; conditions: induced cells
Procedure: The luciferase assay was performed using pGL4 luciferase reporter vectors and Dual-Glo Luciferase Assay System (Promega, Madison, WI). For this assay, the inducible MAS stable cells were initially plated in a 10 cm plate and left overnight in a cell culture incubator. The following day the cells were transfected with 5 µg of pGL4.34 plasmid containing serum response factor response element (SRF-RE)-firefly luciferase reporter gene and 1 µg of pGL4.73 plasmid containing renilla luciferase (as a transfection efficiency control). […] After 8 h of transfection and induction, the cells were seeded onto a 96-well clear bottom black cell culture plate (pre-coated with poly-L-lysine) at a density of 125,000 cells/well in 100 µl of minimal medium (with reduced serum of 0.5%). The plate was maintained in a cell culture incubator for 18–20 h. At this point 50 µl of media in the cells was replaced with 50 µl of serum free media containing ligands at 2x the desired concentration and incubated for an additional 6 h. Finally, the luciferase activity in the cells was measured according the protocol provided by the manufacturer. The luminescence measurements (RLU) in the cells were obtained on FlexStation 3 instrument.
For re-stimulation assays, the data is expressed as the percentage of maximum agonist stimulation to allow for ready comparison between individual experiments. […] In the luciferase assay, the luminescence measurements (RLU) are presented as a ratio of firefly to renilla luciferase activity. For all the assays, the EC50 and IC50 values were estimated by fitting the data to a three parameter dose response using GraphPad Prism software (GraphPad, La Jolla, CA).

[5] = target: T3, MAS M244A mutant (Homo sapiens, UniProt P04201, M244A); assay: Calcium assay, M244A MAS mutant stable cell line
T3 construct: expressed in transfected cells
T3 sequence (P04201 1-325 M244A): T1 sequence (P04201 1-325) with M244A
Procedure: as §1, §2

| SMILES | Effect on cAMP levels [1] | EC50, Calcium assay [2] | t1/2, Calcium assay [2] | Response to second agonist (NPFF or AR-agonist) after first stimulation with the ligand ([3]; re-stimulation assay, second ligand at 600 s) | EC50 [4] [nM] | EC50, Calcium assay [5] | t1/2, Calcium assay [5] | Inhibition of NPFF calcium response ([3]; first ligand at 25 µM, then NPFF) | Inhibition of AR-agonist calcium dose-response by pre-treatment ([3]; pre-treatment at 25 µM) | IC50 [4] [nM] |
| --- | --- | --- | --- | --- | --- | --- | --- | --- | --- | --- |
| COc1cc([N+](=O)[O-])ccc1S(=O)(=O)N1CC(CN2CCN(c3ccccn3)CC2)C(c2cccc(F)c2)C1 (stereo not shown) [AR-agonist] | decreased cAMP levels | cbd | cbd | did not respond | 500 ± 100 | cbd | cbd |  |  |  |
| C=CCCN1CCC2(CC1)CN(C(=O)c1c(F)cccc1F)c1ccc(Cl)cc12 [AR-inverse] |  |  |  |  |  |  |  | completely inhibited | complete inhibition | 400 ± 100 |

Source: publication PMC4113456, “Atypical Signaling and Functional Desensitization Response of MAS Receptor to Peptide Ligands” (PLoS ONE, 2014)
